What follows are compounds tested against EGFR (human) (UniProt P00533). Conditions: a431.
EGFR (human), sequence (P00533 whole entry, looked up): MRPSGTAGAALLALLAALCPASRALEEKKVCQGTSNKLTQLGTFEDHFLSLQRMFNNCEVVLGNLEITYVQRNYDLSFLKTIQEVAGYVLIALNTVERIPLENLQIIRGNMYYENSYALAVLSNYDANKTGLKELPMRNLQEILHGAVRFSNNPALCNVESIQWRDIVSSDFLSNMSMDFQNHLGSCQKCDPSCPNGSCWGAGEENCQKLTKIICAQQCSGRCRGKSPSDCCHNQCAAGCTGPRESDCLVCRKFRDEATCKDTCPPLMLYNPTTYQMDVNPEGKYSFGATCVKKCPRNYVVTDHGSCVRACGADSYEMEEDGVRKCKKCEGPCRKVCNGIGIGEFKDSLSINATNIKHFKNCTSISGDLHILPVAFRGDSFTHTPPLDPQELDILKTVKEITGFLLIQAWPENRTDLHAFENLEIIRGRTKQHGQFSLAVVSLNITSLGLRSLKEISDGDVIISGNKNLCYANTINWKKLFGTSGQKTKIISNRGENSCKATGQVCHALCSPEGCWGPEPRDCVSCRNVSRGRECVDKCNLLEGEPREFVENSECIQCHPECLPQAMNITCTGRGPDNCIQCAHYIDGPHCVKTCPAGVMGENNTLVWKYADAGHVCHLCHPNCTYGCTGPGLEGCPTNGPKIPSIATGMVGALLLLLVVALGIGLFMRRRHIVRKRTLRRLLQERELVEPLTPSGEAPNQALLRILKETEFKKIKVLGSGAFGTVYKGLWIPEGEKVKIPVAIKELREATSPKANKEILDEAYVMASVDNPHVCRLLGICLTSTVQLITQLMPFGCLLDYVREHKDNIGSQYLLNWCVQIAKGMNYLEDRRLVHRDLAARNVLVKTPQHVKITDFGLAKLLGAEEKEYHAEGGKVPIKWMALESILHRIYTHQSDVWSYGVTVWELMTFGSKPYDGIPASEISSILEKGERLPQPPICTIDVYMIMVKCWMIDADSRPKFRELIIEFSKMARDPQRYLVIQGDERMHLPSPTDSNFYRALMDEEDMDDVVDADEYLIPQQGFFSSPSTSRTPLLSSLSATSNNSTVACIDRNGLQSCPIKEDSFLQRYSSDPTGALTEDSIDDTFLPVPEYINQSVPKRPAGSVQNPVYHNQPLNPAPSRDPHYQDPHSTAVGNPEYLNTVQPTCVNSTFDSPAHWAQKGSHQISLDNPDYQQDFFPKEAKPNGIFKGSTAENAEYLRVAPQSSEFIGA

| Compound | IC50 [nM] |
| --- | --- |
| Cc1ccc(Oc2ccc(Nc3ncnc4ccc(-n5cc(CCO)c(C(=O)NCCN6CCCC6)c5)cc34)cc2C)cn1 | 140 |
| OCc1cc(-c2ccc3ncnc(Nc4ccc(OCc5cccc(F)c5)c(Cl)c4)c3c2)c[nH]1 | 4560 |
| O[C@@H](CN1CCC(N2CCCCC2)CC1)Cn1ccc(-c2ccc3ncnc(Nc4ccc(OCc5cccc(F)c5)c(Cl)c4)c3c2)c1 | 415 |
| OCCc1cn(-c2ccc3ncnc(Nc4ccc(F)c(Cl)c4)c3c2)cc1CN1CCCCC1 | 220 |
| O=C1CN(CC(O)Cn2ccc(-c3ccc4ncnc(Nc5ccc(OCc6cccc(F)c6)c(Cl)c5)c4c3)c2)CCN1 (centres undefined) | 1220 |
| OCCc1cn(-c2ccc3ncnc(Nc4ccc(F)c(Cl)c4)c3c2)cc1CN1CCCC1 | 60 |

What follows are compounds tested against EGFR (human) (UniProt P00533). Conditions: not given.

| Compound | IC50 [nM] |
| --- | --- |
| OC1(Cn2ccc(-c3ccc4ncnc(Nc5ccc(OCc6cccc(F)c6)c(Cl)c5)c4c3)c2)CCNCC1 | 12 |
| O=S1(=O)CCC(CNCC(O)Cn2ccc(-c3ccc4ncnc(Nc5ccc(OCc6cccc(F)c6)c(Cl)c5)c4c3)c2)CC1 (centres undefined) | 42 |
| CS(=O)(=O)CCNCc1cn(-c2ccc3ncnc(Nc4ccc(F)c(Cl)c4)c3c2)cc1CCO | 65 |
| COCCc1cn(-c2ccc3ncnc(Nc4ccc(OCc5cccc(F)c5)c(Cl)c4)c3c2)cc1C(=O)N1CCOCC1 | 72 |
| CCN(CC)CCON=C1CCc2cn(-c3ccc4ncnc(Nc5ccc(OCc6cccc(F)c6)c(Cl)c5)c4c3)cc21 | 72 |
| O=S1(=O)CCC(CNCc2cn(-c3ccc4ncnc(Nc5ccc6c(cnn6Cc6cccc(F)c6)c5)c4c3)cc2CCO)CC1 | 12 |
| O=C(NCCN1CCCCC1)c1cn(-c2ccc3ncnc(Nc4ccc5c(cnn5Cc5ccc(F)cc5)c4)c3c2)cc1CCO | 23 |
| CN1CCN(Cc2cn(-c3ccc4ncnc(Nc5ccc(OCc6cccc(F)c6)c(Cl)c5)c4c3)cc2CCO)CC1 | 42 |
| O=C(NCCCN1CCOCC1)c1cn(-c2ccc3ncnc(Nc4ccc(OCc5ccccn5)c(Cl)c4)c3c2)cc1CCO | 96 |
| COCCNCc1cc(-c2ccc3ncnc(Nc4ccc(OCc5cccc(F)c5)c(Cl)c4)c3c2)c[nH]1 | 31 |
| CN1CCN(C(=O)c2cn(-c3ccc4ncnc(Nc5ccc6c(cnn6Cc6ccc(F)cc6)c5)c4c3)cc2CCO)CC1 | 62 |
| O=S1(=O)CCC(CNCc2cn(-c3ccc4ncnc(Nc5ccc(OCc6cccc(F)c6)c(Cl)c5)c4c3)cc2CCO)CC1 | 24 |
| O=C(c1cn(-c2ccc3ncnc(Nc4ccc5c(cnn5Cc5ccc(F)cc5)c4)c3c2)cc1CCO)N1CCOCC1 | 50 |
| COCCNCC(O)Cn1ccc(-c2ccc3ncnc(Nc4ccc(OCc5cccc(F)c5)c(Cl)c4)c3c2)c1 (centres undefined) | 11 |
| OCC1CCCN1CCn1ccc(-c2ccc3ncnc(Nc4ccc(OCc5cccc(F)c5)c(Cl)c4)c3c2)c1 (centres undefined) | 60 |
| CS(=O)(=O)n1ccc(-c2ccc3ncnc(Nc4ccc(OCc5cccc(F)c5)c(Cl)c4)c3c2)c1 | 14 |
| CN(C)CC=CC(=O)Nc1cn(-c2ccc3ncnc(Nc4ccc(OCc5cccc(F)c5)c(Cl)c4)c3c2)cc1C(F)(F)F | 276 |
| CCN(CC)Cc1cn(-c2ccc3ncnc(Nc4ccc(OCc5ccccn5)c(Cl)c4)c3c2)cc1CCO | 21 |
| CCN(CC)CCNCc1cn(-c2ccc3ncnc(Nc4ccc(OCc5cccc(F)c5)c(Cl)c4)c3c2)cc1C(F)(F)F | 53 |
| Fc1cccc(COc2ccc(Nc3ncnc4ccc(-c5c[nH]c(CNCCN6CCOCC6)c5)cc34)cc2Cl)c1 | 102 |
| Fc1ccc(Nc2ncnc3ccc(-c4cc[nH]c4)cc23)cc1Cl | 47 |
| OCCc1cn(-c2ccc3ncnc(Nc4ccc(OCc5ccccn5)c(Cl)c4)c3c2)cc1CN1CCOCC1 | 22 |
| OC(CNCCN1CCCCC1)Cn1ccc(-c2ccc3ncnc(Nc4ccc(OCc5cccc(F)c5)c(Cl)c4)c3c2)c1 (centres undefined) | 92 |
| CCN(CC)Cc1cn(-c2ccc3ncnc(Nc4ccc(OCc5cccc(F)c5)c(Cl)c4)c3c2)cc1CCO | 37 |
| CC(C)(C)OC(=O)n1cccc1-c1ccc2ncnc(Nc3ccc(OCc4cccc(F)c4)c(Cl)c3)c2c1 | 28 |

| Compound | IC50 [nM] |
| --- | --- |
| CCN(CC)Cc1cn(-c2ccc3ncnc(Nc4ccc(OCc5cccc(F)c5)c(Cl)c4)c3c2)cc1CN(CC)CC | 127 |
| O=C1CCc2cn(-c3ccc4ncnc(Nc5ccc(OCc6cccc(F)c6)c(Cl)c5)c4c3)cc21 | 2 |
| O=C(c1cn(-c2ccc3ncnc(Nc4ccc(OCc5ccccn5)c(Cl)c4)c3c2)cc1CCO)N1CCC(N2CCCCC2)CC1 | 105 |
| CN(C)CCc1cn(-c2ccc3ncnc(Nc4ccc(OCc5cccc(F)c5)c(Cl)c4)c3c2)cc1C(=O)N1CCOCC1 | 57 |
| Fc1cccc(COc2ccc(Nc3ncnc4ccc(-n5cc(CN6CCOCC6)c(CN6CCOCC6)c5)cc34)cc2Cl)c1 | 376 |
| O=C(NCCCN1CCOCC1)c1cn(-c2ccc3ncnc(Nc4ccc5c(cnn5Cc5ccc(F)cc5)c4)c3c2)cc1CCO | 115 |
| CS(=O)(=O)CCNCc1cn(-c2ccc3ncnc(Nc4ccc(OCc5ccccn5)c(Cl)c4)c3c2)cc1CCO | 16 |
| CCOC(=O)c1cn(-c2ccc3ncnc(Nc4ccc(OCc5cccc(F)c5)c(Cl)c4)c3c2)cc1C(F)(F)F | 31 |
| CS(=O)(=O)CCNCc1cn(-c2ccc3ncnc(Nc4ccc(OCc5cccc(F)c5)c(Cl)c4)c3c2)cc1CCO | 11 |
| O=C(NCCN1CCCCC1)c1cn(-c2ccc3ncnc(Nc4ccc(OCc5cccc(F)c5)c(Cl)c4)c3c2)cc1CCO | 8 |
| CCN(CC)CCc1cn(-c2ccc3ncnc(Nc4ccc(OCc5cccc(F)c5)c(Cl)c4)c3c2)cc1C(=O)N1CCOCC1 | 15 |
| CS(=O)(=O)CCNCC(O)Cn1ccc(-c2ccc3ncnc(Nc4ccc(OCc5cccc(F)c5)c(Cl)c4)c3c2)c1 (centres undefined) | 17 |
| Fc1cccc(COc2ccc(Nc3ncnc4ccc(-c5ccn(CCN6CCNCC6)c5)cc34)cc2Cl)c1 | 2 |
| CN(C)Cc1cn(-c2ccc3ncnc(Nc4ccc(OCc5cccc(F)c5)c(Cl)c4)c3c2)cc1CCO | 39 |
| Fc1cccc(COc2ccc(Nc3ncnc4ccc(-c5ccn(C[C@H]6CCNC6)c5)cc34)cc2Cl)c1 | 638 |
| CC(C)(C)OC(=O)N1CCC(NCc2cc(-c3ccc4ncnc(Nc5ccc(OCc6cccc(F)c6)c(Cl)c5)c4c3)c[nH]2)CC1 | 470 |
| Fc1cccc(COc2ccc(Nc3ncnc4ccc(-c5c[nH]c(CN6CCC(N7CCCCC7)CC6)c5)cc34)cc2Cl)c1 | 66 |
| O=C(Cn1ccc(-c2ccc3ncnc(Nc4ccc(OCc5cccc(F)c5)c(Cl)c4)c3c2)c1)N1CCCCC1 | 66 |
| O=C(NCCN1CCCC1)c1cn(-c2ccc3ncnc(Nc4ccc5c(cnn5Cc5ccc(F)cc5)c4)c3c2)cc1CCO | 16 |
| CN(C)Cc1cn(-c2ccc3ncnc(Nc4ccc(OCc5cccc(F)c5)c(Cl)c4)c3c2)cc1CN(C)C | 56 |
| OC1CCC(NCC(O)Cn2ccc(-c3ccc4ncnc(Nc5ccc(OCc6cccc(F)c6)c(Cl)c5)c4c3)c2)CC1 (centres undefined) | 49 |
| CCN(CC)CCNC(=O)c1cn(-c2ccc3ncnc(Nc4ccc5c(cnn5Cc5ccc(F)cc5)c4)c3c2)cc1CCO | 156 |
| O=S1(=O)CCC(O)(CNCc2cn(-c3ccc4ncnc(Nc5ccc(F)c(Cl)c5)c4c3)cc2CCO)CC1 | 76 |
| CN(C)Cc1cn(-c2ccc3ncnc(Nc4ccc5c(cnn5Cc5cccc(F)c5)c4)c3c2)cc1CCO | 15 |
| O=S1(=O)CCC(O)(CNCc2cn(-c3ccc4ncnc(Nc5ccc(OCc6cccc(F)c6)c(Cl)c5)c4c3)cc2C(F)(F)F)CC1 | 16 |

| Compound | IC50 [nM] |
| --- | --- |
| O=C(c1cn(-c2ccc3ncnc(Nc4ccc(OCc5ccccn5)c(Cl)c4)c3c2)cc1CCO)N1CCCC1 | 30 |
| OC(CN1CCOCC1)Cn1ccc(-c2ccc3ncnc(Nc4ccc(OCc5cccc(F)c5)c(Cl)c4)c3c2)c1 (centres undefined) | 12 |
| OC(CN1CCNCC1)Cn1ccc(-c2ccc3ncnc(Nc4ccc(OCc5cccc(F)c5)c(Cl)c4)c3c2)c1 (centres undefined) | 30 |
| Fc1cccc(COc2ccc(Nc3ncnc4ccc(-c5c[nH]c(CNCCCN6CCOCC6)c5)cc34)cc2Cl)c1 | 197 |
| Fc1cccc(COc2ccc(Nc3ncnc4ccc(-n5cc(CN6CCCCC6)c(CN6CCCCC6)c5)cc34)cc2Cl)c1 | 291 |
| C=C(C)C(=O)Nc1cn(-c2ccc3ncnc(Nc4ccc(OCc5cccc(F)c5)c(Cl)c4)c3c2)cc1C(F)(F)F | 5 |
| O=C(Cn1ccc(-c2ccc3ncnc(Nc4ccc(OCc5cccc(F)c5)c(Cl)c4)c3c2)c1)NC1CC1 | 13 |
| O=C(c1cn(-c2ccc3ncnc(Nc4ccc(OCc5ccccn5)c(Cl)c4)c3c2)cc1CCO)N1CCCCC1 | 95 |
| O=C(Cn1ccc(-c2ccc3ncnc(Nc4ccc(OCc5cccc(F)c5)c(Cl)c4)c3c2)c1)NC1CCNCC1 | 34 |
| O=S1(=O)CCC(O)(CNCc2cn(-c3ccc4ncnc(Nc5ccc(OCc6cccc(F)c6)c(Cl)c5)c4c3)cc2CCO)CC1 | 19 |
| Fc1cccc(Cn2ncc3cc(Nc4ncnc5ccc(-c6cc[nH]c6)cc45)ccc32)c1 | 3 |
| CCN(CC)C(=O)Cn1ccc(-c2ccc3ncnc(Nc4ccc(OCc5cccc(F)c5)c(Cl)c4)c3c2)c1 | 140 |
| CS(=O)(=O)CCNC(=O)c1cc(-c2ccc3ncnc(Nc4ccc(OCc5cccc(F)c5)c(Cl)c4)c3c2)c[nH]1 | 24 |
| O=S1(=O)CCC(CNCc2cn(-c3ccc4ncnc(Nc5ccc(F)c(Cl)c5)c4c3)cc2CCO)CC1 | 127 |
| Fc1cccc(COc2ccc(Nc3ncnc4ccc(-n5cc(CNCCN6CCCCC6)c(C(F)(F)F)c5)cc34)cc2Cl)c1 | 10 |
| OCCc1cn(-c2ccc3ncnc(Nc4ccc(OCc5cccc(F)c5)c(Cl)c4)c3c2)cc1CNCCN1CCOCC1 | 71 |
| CS(=O)(=O)CCNCc1cn(-c2ccc3ncnc(Nc4ccc5c(cnn5Cc5cccc(F)c5)c4)c3c2)cc1CCO | 25 |
| Fc1cccc(COc2ccc(Nc3ncnc4ccc(-c5ccn(CCOC6CCCCO6)c5)cc34)cc2Cl)c1 (centres undefined) | 131 |
| CS(=O)(=O)CCNCc1cc(-c2ccc3ncnc(Nc4ccc5c(cnn5Cc5cccc(F)c5)c4)c3c2)c[nH]1 | 4 |
| O=C(c1cn(-c2ccc3ncnc(Nc4ccc(OCc5cccc(F)c5)c(Cl)c4)c3c2)cc1CCN1CCOCC1)N1CCOCC1 | 25 |
| Fc1cccc(COc2ccc(Nc3ncnc4ccc(-n5cc(CNCCN6CCOCC6)c(C(F)(F)F)c5)cc34)cc2Cl)c1 | 32 |
| Fc1cccc(COc2ccc(Nc3ncnc4ccc(-c5ccn(CCN6CCOCC6)c5)cc34)cc2Cl)c1 | 40 |
| O[C@@H](CNCc1cn(-c2ccc3ncnc(Nc4ccc(OCc5cccc(F)c5)c(Cl)c4)c3c2)cc1C(F)(F)F)CN1CCOCC1 | 91 |
